Reference: patent US12473332B2, “Modified peptides and associated methods of use” (Advanced Technologies For Novel Therapeutics, LLC, priority 2019, dated 2025)
Where no end group is shown, it is not given here.

Assays:
[1] = trypan blue staining, live and dead cell count; type: cell-based; settings: 12 to 72 hours
Source text: Therefore, in addition to capturing live images, cells were stained with trypan blue at different time intervals following treatment with ZaTa and counted by a light microscope using a hemocytometer.

AKT [2] = target: AKT (Homo sapiens, UniProt P31749); experiment: in vitro AKT kinase assay with Ser-9 GSK-3 GST fusion protein substrate; PKAc peptide library screen; type: biochemical; settings: Ser-9 GSK-3 GST substrate
Sequence of AKT (Homo sapiens, UniProt P31749) (P31749 whole entry, the tested form may be a part): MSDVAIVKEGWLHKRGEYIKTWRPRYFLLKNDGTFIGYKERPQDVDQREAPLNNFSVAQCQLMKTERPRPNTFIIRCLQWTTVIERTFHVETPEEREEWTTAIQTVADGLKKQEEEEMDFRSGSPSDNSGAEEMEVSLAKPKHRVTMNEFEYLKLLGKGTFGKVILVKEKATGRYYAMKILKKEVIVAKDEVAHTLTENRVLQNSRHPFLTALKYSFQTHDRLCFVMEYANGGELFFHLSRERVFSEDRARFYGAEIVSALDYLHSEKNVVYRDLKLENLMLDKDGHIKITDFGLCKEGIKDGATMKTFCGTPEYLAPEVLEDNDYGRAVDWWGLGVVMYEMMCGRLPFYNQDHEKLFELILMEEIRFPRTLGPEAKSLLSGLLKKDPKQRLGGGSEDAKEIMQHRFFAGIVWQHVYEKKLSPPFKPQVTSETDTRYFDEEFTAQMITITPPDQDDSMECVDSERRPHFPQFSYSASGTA

JAK3 = target: T1, JAK3 (Homo sapiens, UniProt P52333); experiment: in vitro kinase assay, selectivity; type: biochemical; parameters: dose or concentration left out as unconfirmed
T1 construct: phosphorylation levels of well-known intracellular substrates for each kinase; endogenous in cells
T1 sequence (P52333 whole entry, species assumed): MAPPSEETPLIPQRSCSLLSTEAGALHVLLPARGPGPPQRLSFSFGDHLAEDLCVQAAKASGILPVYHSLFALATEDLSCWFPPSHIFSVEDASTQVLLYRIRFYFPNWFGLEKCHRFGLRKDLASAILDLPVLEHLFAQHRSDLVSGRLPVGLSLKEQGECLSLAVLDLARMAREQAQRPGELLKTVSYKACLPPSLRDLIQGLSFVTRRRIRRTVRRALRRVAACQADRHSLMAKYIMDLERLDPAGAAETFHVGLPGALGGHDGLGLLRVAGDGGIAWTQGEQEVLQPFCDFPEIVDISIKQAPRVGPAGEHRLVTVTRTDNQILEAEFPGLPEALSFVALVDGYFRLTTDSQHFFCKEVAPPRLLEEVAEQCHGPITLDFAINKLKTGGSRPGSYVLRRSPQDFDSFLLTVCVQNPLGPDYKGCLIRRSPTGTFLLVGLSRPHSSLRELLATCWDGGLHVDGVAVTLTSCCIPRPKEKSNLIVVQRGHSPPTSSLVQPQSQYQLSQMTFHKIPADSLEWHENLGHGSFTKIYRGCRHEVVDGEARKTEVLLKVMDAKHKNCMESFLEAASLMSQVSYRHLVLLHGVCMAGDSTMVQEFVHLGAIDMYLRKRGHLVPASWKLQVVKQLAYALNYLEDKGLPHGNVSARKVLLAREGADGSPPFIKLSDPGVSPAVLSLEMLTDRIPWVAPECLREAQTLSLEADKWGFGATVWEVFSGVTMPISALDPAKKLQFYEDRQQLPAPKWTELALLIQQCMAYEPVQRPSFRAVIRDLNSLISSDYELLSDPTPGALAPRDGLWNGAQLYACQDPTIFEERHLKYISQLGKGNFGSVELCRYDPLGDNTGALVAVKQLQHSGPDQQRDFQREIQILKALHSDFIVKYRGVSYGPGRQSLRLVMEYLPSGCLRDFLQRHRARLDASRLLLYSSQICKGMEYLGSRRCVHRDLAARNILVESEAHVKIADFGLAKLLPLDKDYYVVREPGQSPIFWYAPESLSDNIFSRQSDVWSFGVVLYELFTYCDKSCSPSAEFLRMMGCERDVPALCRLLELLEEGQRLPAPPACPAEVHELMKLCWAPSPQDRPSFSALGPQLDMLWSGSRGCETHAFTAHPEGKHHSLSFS
Method: (§1) To test the specificity/selectivity of ZaTa as the inhibitor of AKT1 versus the other major kinases, a series of in vitro kinase assays was performed at IC50 for AKT1 and at ten times higher concentrations. A panel of the following 32 kinases was first tested in vitro using the active form of each kinase and a specific substrate: AKT2, AKT3, PKA, PKCα, PKCγ, PI3Kβ, PI3Kδ, PI3Kγ, SGK, PAK2, PAK3, SAPK2/p38, Abl, CaMKII, CDK1/cyclinB, CDK5/p35, CK1, CK2, CSK, GSK3α, GSK3β, JNK1α1, MAPK1, p70S6K, PDGFRα, PDGFRβ, PDK1, PKG1α, TrkB, JAK2, JAK3, and Syk. […] However, at ten times higher concentration, ZaTa inhibited AKT2 (63%), PI3Kδ (72%), p70S6K (64%), SGK (73%), PAK3 (83%), JAK3 (79%), TrkB (84%), and Abl (42%). To confirm the in vitro inhibitory effect on these kinases in cells, a cell-based assay was used to determine the effect of labeled ZaTa on the phosphorylation levels of well-known intracellular substrates for each kinase (Zipfel, et al. (2004) Curr. Biol. 14:1222-1231; Wang, et al. (2003) Arch. Biochem. Biophys. 410:7-15; King, et al. (1998) Nature 396:180-183; Rangone, et al. (2004)Eur. J. Neurosci. 19:273-279; Middlemas, et al. (1994)J. Biol. Chem. 269:5458-5466; Huang, et al. (1999) J. Biol. Chem. 274:7870-7878). The results of this cell-based kinase assay confirmed that ZaTa could inhibit p70S6K besides AKT. […] Given that most of the above-listed kinases have no known inhibitor, it is contemplated that the ZaTa could be used at micromolar concentrations in in vitro studies to inhibit the activity of the select kinases.

AKT2 = AKT2 (Homo sapiens, UniProt P31751); experiment: in vitro kinase assay, selectivity; type: biochemical; parameters: dose or concentration left out as unconfirmed
Sequence of AKT2 (P31751 whole entry, species assumed): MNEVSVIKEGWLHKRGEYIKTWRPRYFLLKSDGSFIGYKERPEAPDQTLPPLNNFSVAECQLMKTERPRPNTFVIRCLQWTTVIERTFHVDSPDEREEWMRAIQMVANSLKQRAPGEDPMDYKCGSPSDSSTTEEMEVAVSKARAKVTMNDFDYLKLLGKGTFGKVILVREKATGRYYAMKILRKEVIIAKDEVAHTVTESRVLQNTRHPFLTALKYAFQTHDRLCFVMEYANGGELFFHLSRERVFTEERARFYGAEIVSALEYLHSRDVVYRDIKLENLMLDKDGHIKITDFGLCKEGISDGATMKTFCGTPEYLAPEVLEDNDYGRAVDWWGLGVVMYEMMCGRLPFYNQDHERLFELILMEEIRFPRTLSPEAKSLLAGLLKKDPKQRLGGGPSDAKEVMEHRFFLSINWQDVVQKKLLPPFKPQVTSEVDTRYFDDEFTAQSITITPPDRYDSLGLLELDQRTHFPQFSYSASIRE
Method: as §1

SGK = target: T2, SGK (Homo sapiens, UniProt O00141); experiment: in vitro kinase assay, selectivity; type: biochemical; parameters: dose or concentration left out as unconfirmed
T2 construct: phosphorylation levels of well-known intracellular substrates for each kinase; endogenous in cells
T2 sequence (O00141 whole entry, species assumed): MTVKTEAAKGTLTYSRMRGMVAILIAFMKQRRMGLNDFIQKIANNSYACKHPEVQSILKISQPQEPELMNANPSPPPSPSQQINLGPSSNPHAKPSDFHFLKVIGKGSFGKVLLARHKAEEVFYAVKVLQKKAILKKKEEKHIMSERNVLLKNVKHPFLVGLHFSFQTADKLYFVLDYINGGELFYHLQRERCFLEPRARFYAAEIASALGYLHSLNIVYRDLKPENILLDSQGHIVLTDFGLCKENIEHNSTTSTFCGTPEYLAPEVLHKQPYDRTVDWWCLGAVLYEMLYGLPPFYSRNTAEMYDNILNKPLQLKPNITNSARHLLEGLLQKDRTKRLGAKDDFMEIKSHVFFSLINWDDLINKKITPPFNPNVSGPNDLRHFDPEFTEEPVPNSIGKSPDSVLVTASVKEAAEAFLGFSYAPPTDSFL
Method: as §1

p70S6K = target: T3, p70S6K (Homo sapiens, UniProt P23443); experiment: in vitro kinase assay, selectivity; type: biochemical; parameters: dose or concentration left out as unconfirmed
T3 construct: phosphorylation levels of well-known intracellular substrates for each kinase; endogenous in cells
T3 sequence (P23443 whole entry): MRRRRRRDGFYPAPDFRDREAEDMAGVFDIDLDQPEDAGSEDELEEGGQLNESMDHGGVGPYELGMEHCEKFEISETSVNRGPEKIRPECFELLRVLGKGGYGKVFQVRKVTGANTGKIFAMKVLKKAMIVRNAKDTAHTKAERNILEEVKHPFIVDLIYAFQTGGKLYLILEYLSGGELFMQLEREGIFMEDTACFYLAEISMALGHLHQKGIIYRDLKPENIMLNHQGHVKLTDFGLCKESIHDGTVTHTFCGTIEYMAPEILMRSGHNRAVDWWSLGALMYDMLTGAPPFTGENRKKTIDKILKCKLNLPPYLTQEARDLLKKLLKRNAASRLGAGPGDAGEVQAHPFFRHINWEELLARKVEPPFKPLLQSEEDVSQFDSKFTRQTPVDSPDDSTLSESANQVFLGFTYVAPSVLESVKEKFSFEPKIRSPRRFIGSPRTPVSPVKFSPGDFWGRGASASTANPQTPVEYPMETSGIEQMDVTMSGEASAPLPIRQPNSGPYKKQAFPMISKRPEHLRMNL
Method: as §1

TrkB = TrkB (Homo sapiens, UniProt Q16620); experiment: in vitro kinase assay, selectivity; type: biochemical; parameters: dose or concentration left out as unconfirmed
Method: as §1

PAK3 = PAK3 (Homo sapiens, UniProt O75914); experiment: in vitro kinase assay, selectivity; type: biochemical; parameters: dose or concentration left out as unconfirmed
Sequence of PAK3 (O75914 whole entry, species assumed): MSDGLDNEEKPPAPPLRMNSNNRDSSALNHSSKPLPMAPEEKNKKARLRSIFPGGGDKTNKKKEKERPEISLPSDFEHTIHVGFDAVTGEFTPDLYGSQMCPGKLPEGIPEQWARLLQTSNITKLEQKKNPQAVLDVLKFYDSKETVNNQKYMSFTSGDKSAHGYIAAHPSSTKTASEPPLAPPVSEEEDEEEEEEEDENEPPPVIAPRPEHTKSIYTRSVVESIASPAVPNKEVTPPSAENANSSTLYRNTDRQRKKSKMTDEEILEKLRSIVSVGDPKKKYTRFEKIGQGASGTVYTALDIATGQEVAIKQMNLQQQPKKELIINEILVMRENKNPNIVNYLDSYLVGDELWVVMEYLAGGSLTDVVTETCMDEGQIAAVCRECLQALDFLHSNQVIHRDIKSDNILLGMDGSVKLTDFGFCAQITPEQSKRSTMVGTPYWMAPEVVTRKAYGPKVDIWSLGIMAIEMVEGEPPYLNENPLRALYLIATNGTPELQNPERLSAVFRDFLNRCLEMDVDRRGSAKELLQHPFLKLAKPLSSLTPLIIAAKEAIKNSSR
Method: as §1

Abl = Abl (Homo sapiens, UniProt P00519); experiment: in vitro kinase assay, selectivity; type: biochemical; parameters: dose or concentration left out as unconfirmed
Sequence of Abl (P00519 whole entry, species assumed): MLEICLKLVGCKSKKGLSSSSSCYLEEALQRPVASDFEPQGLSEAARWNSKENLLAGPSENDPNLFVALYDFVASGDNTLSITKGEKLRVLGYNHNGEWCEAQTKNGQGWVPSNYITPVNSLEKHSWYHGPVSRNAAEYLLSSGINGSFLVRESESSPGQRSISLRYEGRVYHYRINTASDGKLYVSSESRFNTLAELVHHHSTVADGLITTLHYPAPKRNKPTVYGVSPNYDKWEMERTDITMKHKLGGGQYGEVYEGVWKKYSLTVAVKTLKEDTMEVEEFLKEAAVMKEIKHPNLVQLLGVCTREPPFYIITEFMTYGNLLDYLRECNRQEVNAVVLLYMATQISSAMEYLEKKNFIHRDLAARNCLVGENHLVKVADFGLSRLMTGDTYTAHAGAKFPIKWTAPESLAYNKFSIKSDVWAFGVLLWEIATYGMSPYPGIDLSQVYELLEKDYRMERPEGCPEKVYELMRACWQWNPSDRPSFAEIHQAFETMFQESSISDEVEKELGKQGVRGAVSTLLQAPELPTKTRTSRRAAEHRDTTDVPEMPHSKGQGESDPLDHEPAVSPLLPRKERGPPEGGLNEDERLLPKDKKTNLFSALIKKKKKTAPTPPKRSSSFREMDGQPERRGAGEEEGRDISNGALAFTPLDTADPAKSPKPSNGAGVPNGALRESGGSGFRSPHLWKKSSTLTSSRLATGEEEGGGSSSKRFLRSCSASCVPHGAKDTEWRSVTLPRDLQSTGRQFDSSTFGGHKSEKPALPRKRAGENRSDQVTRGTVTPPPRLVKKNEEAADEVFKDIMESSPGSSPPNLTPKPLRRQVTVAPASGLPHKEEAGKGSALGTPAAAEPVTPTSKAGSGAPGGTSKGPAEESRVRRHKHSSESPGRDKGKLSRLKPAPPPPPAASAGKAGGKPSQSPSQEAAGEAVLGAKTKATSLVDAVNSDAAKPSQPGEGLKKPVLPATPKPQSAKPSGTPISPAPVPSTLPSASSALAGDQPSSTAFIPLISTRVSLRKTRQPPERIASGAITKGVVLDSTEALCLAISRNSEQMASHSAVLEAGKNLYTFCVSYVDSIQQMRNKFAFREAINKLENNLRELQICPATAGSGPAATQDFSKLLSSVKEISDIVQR
Method: as §1

N2a cells = experiment: MTT-based proliferation assay; type: cell-based
Method: AKT affects a network that positively regulates G1/S cell cycle progression through several mechanisms that involve the expression and subcellular localization of the CDK inhibitor p27^Kip1 (Blain and Massague (2002) Nat. Med. 8:1076-1078; Liang, et al. (2002) supra; Shin, et al. (2002) supra; Viglietto, et al. (2002) supra). Based on these studies, the effect of ZaTa peptide on cell proliferation was assessed. […] Capturing live images of cultured N2a cells in the presence of different concentrations of the ZaTa peptide confirmed an obvious reduction in the number of dividing cells.
Based on the importance of the C-terminal arm of ZaTa for its inhibitory action on AKT, it was determined whether the free hydroxyl groups on residues Thr-8, Thr-10 (equivalent to Thr-197 in full-length PKAc), Thr-14 and Tyr-17 were important for the biological activity of this peptide. Mutants of ZaTa peptide were synthesized by replacing Thr-8 or Thr-10 residues with Asp (ZaTa^T8D and ZaTa^T10D, respectively) as an amino acid with a negatively charged side chain. Mutants of ZaTa with the hydrophilic positively charged amino acid Arg at either position Thr-14 or Tyr-17 (ZaTa^T14R and ZaTa^Y17R, respectively) were also synthesized. […] The inhibitory effect of ZaTa peptide on cell proliferation was reversible, to a large extent, after the removal of ZaTa treatment.

AKT [3] = target: T4, AKT (Mus musculus, UniProt P31750); experiment: stereotactic injection into brain striatum, phosphorylation of AKT substrates; type: in vivo; settings: vs DMSO hemisphere
T4 construct: from tissue; host or cells: brain striatum, in vivo
T4 sequence (P31750 whole entry): as the sequence (P31749 whole entry, the tested form may be a part) above, with S2N, A50S, T100A, K112R, E117T, K389T, G410N, H415D counted along it
Method: After the stereotactic injection of ZaTa peptide, a decrease in the phosphorylation level of AKT substrates in the striatum of a brain hemisphere was observed as compared to the other hemisphere that was injected with DMSO as the vehicle. […] As a specific substrate, the phosphorylation level of GSK-3β at Ser-9 was also evaluated. […] The decrease was specific to the AKT phosphorylation site on GSK-3β at Ser-9, since a change in the phosphorylation level of GSK-3β at Tyr-216 or GSK-3α at Tyr-279 was not observed. Moreover, the in vivo reduction of the phosphorylation of AKT substrates was more obvious at the injection site, since a significant change in the phosphorylation of AKT substrates in the frontal cortex or cerebellum between the two hemispheres was not observed.
The phenotypic consequence of disrupting the AKT-PKAc complex was also determined. ZaTa peptide was injected into the striatum of one hemisphere of the brain and DMSO, as vehicle, was injected into the other brain hemisphere of an adult C57BL/6 mouse under anesthesia. The brain was removed and dissected. Equal protein amounts from each hemisphere were subjected to immunoprecipitation by an anti-AKT antibody. […] To compare PKAc protein levels in the ZaTa- and vehicle-treated brain hemisphere lysates, western blot analysis was conducted.

AKRVKGRTWTLCGTPEY [Peptide 53, A-K-R-V-K-G-R-T-W-T-L-C-G-T-P-E-Y]
number of dead cells [1]: a significant increase in the number of dead cells was not seen
inhibitory effect on catalytic activity of AKT (AKT [2]): significant inhibitory effects
inhibitory effect on catalytic activity of AKT (AKT [2]; listed as ZaTa): significantly reduced
inhibition (JAK3): 79%
inhibition (AKT2): 63%
inhibition (SGK): 73%
inhibition (p70S6K): 64%
inhibition (TrkB): 84%
inhibition (PAK3): 83%
inhibition (Abl): 42%
number of live cells after removal of treatment (reversibility) (N2a cells; 24 hours after removal of 10 μM, vs DMSO vehicle): no significant differences in the number of live cells
number of live cells (N2a cells; MTT): dose-dependent decrease in the number of live cells
dose causing a significant decrease in the number of live cells (N2a cells; doses as low as): 2 µM
phosphorylation level of AKT substrates in vivo (AKT [3]; one hour after stereotactic injection): significant decrease in the phosphorylation level of AKT substrates
phosphorylation level of GSK-3β at Ser-9 in vivo (AKT [3]; stereotactic injection): specific reduction
